Data from ChEMBL document CHEMBL3886292, “Functionally selective ligands of dopamine D2 receptors” (2015).

Tests used:
D(2) dopamine receptor [1] = molecular target: T1, D(2) dopamine receptor (Homo sapiens, UniProt P14416); test: Beta-Arrestin Recruitment (Tango) Assay: Recruitment of β-arrestin to agonist-stimulated D2 receptors was performed using a previously described Tango-type assay (Barnea et al., Proc. Natl. Acad. Sci. USA 105:64 (2008)). Briefly, HTLA cells stably expressing β-arrestin-TEV protease and a tetracycline transactivator-driven luciferase were plated in 15-cm dishes in DMEM containing 10% fetal bovine serum and transfected (via calcium phosphate) with 20 μg of a D2V2-TCS-tTA construct (Barnea et al., Proc. Natl. Acad. Sci. USA 105:64 (2008)). The next day, cells were plated in white, clear-bottom, 384-well plates (Greiner, 10,000 cells/well, 50 μl/well) in DMEM containing 1% dialyzed fetal bovine serum. The following day, the cells were challenged with 10 μl/well of reference agonist (6 μM) or D2 test ligand (6 μM)±reference agonist prepared in HBS, 20 mM HEPES, pH 7.4, 18% DMSO (final ligand concentrations were 1 μM, final DMSO concentration was 3%).; type: functional, cell-based
T1 sequence (P14416 whole entry): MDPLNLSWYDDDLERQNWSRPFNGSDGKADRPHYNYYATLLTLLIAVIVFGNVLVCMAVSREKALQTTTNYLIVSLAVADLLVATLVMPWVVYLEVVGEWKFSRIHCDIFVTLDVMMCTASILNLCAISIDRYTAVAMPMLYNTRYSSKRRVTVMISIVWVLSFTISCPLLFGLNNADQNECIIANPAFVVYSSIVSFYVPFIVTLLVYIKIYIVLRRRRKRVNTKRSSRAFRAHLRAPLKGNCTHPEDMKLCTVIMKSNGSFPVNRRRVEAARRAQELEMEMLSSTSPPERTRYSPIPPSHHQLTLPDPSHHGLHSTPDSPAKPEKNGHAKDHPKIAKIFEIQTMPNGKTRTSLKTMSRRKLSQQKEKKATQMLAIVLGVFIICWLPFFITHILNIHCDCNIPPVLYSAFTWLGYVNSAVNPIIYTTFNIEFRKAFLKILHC

D(2) dopamine receptor [2] = molecular target: T1, D(2) dopamine receptor; test: cAMP GloSensor Assay: HEK293T cells co-expressing the cAMP biosensor GloSensor-22F (Promega) and hD2 receptors were seeded (10,000 cells/20 ul/well) into white, clear-bottom, tissue culture plates in HBSS, 10% FBS, 20 mM HEPES, pH 7.4. After a one- to two-hour recovery, cells were treated with 10 ul of 3x test or reference drug prepared in HBSS, 10% FBS, 20 mM HEPES, pH 7.4. After 30 minutes, cells were challenged with 10 ul of 1,200 nM (4x) isoproterenol in 8% (4x) GloSensor reagent. Luminescence per well per second was read on a Wallac TriLux microbeta plate counter. Data were normalized to the isoproterenol response (100%) and the maximal quinpirole-induced inhibition thereof (0%) and regressed using the sigmoidal dose-response function built into GraphPad Prism 4.0.; type: functional, cell-based, HEK-293T

COc1ccccc1N1CCCN(CCCCOc2ccc3c(n2)NC(=O)CC3)CC1
EC50 (D(2) dopamine receptor [1]): 6.1 nM
EC50 (D(2) dopamine receptor [2]): 222 nM
